Test systems include IGROV-1; Malme-3M; MDA-MB-231; NCI-H522; OVCAR-3; KM12; HCT-15; SK-MEL-28; CAKI-1; M14; SW-620; NCI-H226; SR; SF-539; PC-3; OVCAR-4; MDA-N; ACHN; HOP-62; HOP-92.
What all share (experiment): NCI anticancer screen, dose series, 48 h

These results are taken from ChEMBL document CHEMBL1201862, “PubChem BioAssay data set” (2004).

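All cell lines were grown in 96-well plates and treated with compound for 48 hours. GI50: concentration for 50% inhibition of growth.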 Active and inactive are the calls of the source. No stated cut-off is given here; in the data, active = GI50 up to about 1.1 µM and inactive = higher. A value given as a limit tells only on which side of the number the result lay.

With `CC1(C)N=[N+]([O-])C1(C)C`, the GI50 in the experiment with IGROV-1, with Malme-3M, in the experiment with MDA-MB-231, with NCI-H522, in the experiment on OVCAR-3 and in the experiment on KM12 was > 100 µM (inactive) in each case. For the same compound, the GI50 with HCT-15 was greater than 100 µM; in the experiment on SK-MEL-28, > 100 µM (inactive); in the experiment on CAKI-1, > 100 µM (inactive); in the experiment with M14 it was > 100 µM (inactive); in the experiment on SW-620 it was > 100 µM (inactive); with NCI-H226, > 100 µM (inactive). Also, the GI50 in the experiment with SR, in the experiment with SF-539, in the experiment with PC-3, with OVCAR-4 and in the experiment with MDA-N was > 100 µM (inactive) each time.

As for `COc1cccc(NC(=O)c2c(N)n[nH]c2SC)c1`, the GI50 in the experiment with ACHN, in the experiment with IGROV-1, with Malme-3M, with MDA-MB-231, in the experiment on HOP-62 and in the experiment on HOP-92 was > 100 µM (inactive) throughout. Also, the GI50 in the experiment with NCI-H522 is > 100 µM (inactive); with KM12 it was > 100 µM (inactive); in the experiment with HCT-15, greater than 100 µM; in the experiment with SK-MEL-28, > 100 µM (inactive); in the experiment with CAKI-1 it was > 100 µM (inactive); in the experiment on M14 it was > 100 µM (inactive). Besides, the GI50 in the experiment with SW-620, in the experiment with NCI-H226, with SF-539, with PC-3, in the experiment with OVCAR-4 and with MDA-N was > 100 µM (inactive) each time.

As for `CCOC(=O)c1sc2c(c1OC(=O)c1cc(OC)c(OC)c(OC)c1)c(=O)n(-c1ccccc1)c(=S)n2-c1ccccc1`, the GI50 is > 100 µM (inactive) in the experiment on ACHN; > 100 µM (inactive) with IGROV-1; > 100 µM (inactive) in the experiment on Malme-3M; 56.6 µM (inactive) in the experiment on MDA-MB-231; > 100 µM (inactive) in the experiment on HOP-62; 22.2 µM (inactive) in the experiment with HOP-92. In addition, the GI50 with NCI-H522 was 4.81 µM (inactive); with OVCAR-3, 87.7 µM (inactive); with KM12 it was > 100 µM (inactive); in the experiment on HCT-15 it was 47.3 µM; in the experiment on SK-MEL-28, > 100 µM (inactive); in the experiment with CAKI-1, > 100 µM (inactive). Further, the GI50 in the experiment on M14 is 40.5 µM (inactive); in the experiment with SW-620, > 100 µM (inactive); with NCI-H226 it was > 100 µM (inactive); with SF-539, > 100 µM (inactive); in the experiment with PC-3 it was 63.5 µM (inactive); with OVCAR-4, 70.8 µM (inactive). For the same compound, the GI50 in the experiment with MDA-N is > 100 µM (inactive).

Turning to `C=CC(C)(O)CCC1C(=C)C(O)CC2C(C)(C)CCCC12C` (stereo unspecified), the GI50 was 26 µM (inactive) in the experiment on ACHN; 24.3 µM (inactive) in the experiment with IGROV-1; 18.2 µM (inactive) with Malme-3M; 17.7 µM (inactive) in the experiment with MDA-MB-231; 20.6 µM (inactive) in the experiment on HOP-62; 17.3 µM (inactive) in the experiment with HOP-92. Moreover, the GI50 is 17.6 µM (inactive) in the experiment with NCI-H522; 18.9 µM (inactive) with OVCAR-3; 21.1 µM (inactive) with KM12; 17.6 µM in the experiment on HCT-15; 18.7 µM (inactive) with SK-MEL-28; 23.5 µM (inactive) in the experiment with CAKI-1. Further, the GI50 in the experiment with M14 is 16.3 µM (inactive); in the experiment on SW-620 it was 20.7 µM (inactive); in the experiment on NCI-H226 it was 15.6 µM (inactive); in the experiment with SF-539, 17.9 µM (inactive); with PC-3 it was 15.3 µM (inactive); in the experiment on OVCAR-4, 20.5 µM (inactive). In addition, the GI50 with MDA-N was 20.4 µM (inactive).

Turning to `NCS(=O)(=O)O`, the GI50 with ACHN, in the experiment on IGROV-1, with Malme-3M, in the experiment with MDA-MB-231, with HOP-62 and with HOP-92 was > 100 µM (inactive) throughout. Besides, the GI50 was > 100 µM (inactive) in the experiment with NCI-H522; > 100 µM (inactive) in the experiment on OVCAR-3; > 100 µM (inactive) in the experiment on KM12; greater than 100 µM in the experiment with HCT-15; > 100 µM (inactive) with SK-MEL-28; > 100 µM (inactive) in the experiment on CAKI-1. For the same compound, the GI50 with M14 is > 100 µM (inactive); with SW-620, > 100 µM (inactive); with NCI-H226, > 100 µM (inactive); in the experiment with SF-539, 0.0361 µM (active); in the experiment with PC-3 it was > 100 µM (inactive); in the experiment with OVCAR-4, 83.4 µM (inactive). In addition, the GI50 in the experiment on MDA-N is > 100 µM (inactive).

Consider `CN(C)CCNC1=CC(=O)c2c(O)ccc(O)c2C1=O`, for which the GI50 was 11.5 µM (inactive) in the experiment with ACHN; 6.17 µM (inactive) in the experiment on IGROV-1; 1.25 µM (inactive) with Malme-3M; 11.7 µM (inactive) in the experiment with MDA-MB-231; 16.3 µM (inactive) with HOP-62; 14.2 µM (inactive) in the experiment on HOP-92. The GI50 was 3.73 µM (inactive) in the experiment with NCI-H522; 2.33 µM (inactive) with OVCAR-3; 6.35 µM (inactive) in the experiment with KM12; 4.08 µM in the experiment with HCT-15; 12.2 µM (inactive) in the experiment with SK-MEL-28; 13.9 µM (inactive) in the experiment with CAKI-1. The GI50 in the experiment with M14 is 3.23 µM (inactive); in the experiment on SW-620, 3.3 µM (inactive); with NCI-H226 it was 17.6 µM (inactive); in the experiment on SF-539, 7.1 µM (inactive); with PC-3 it was 5.77 µM (inactive); in the experiment on OVCAR-4, 4.54 µM (inactive). For the same compound, the GI50 in the experiment with MDA-N is 1.97 µM (inactive).

Regarding `COC(=O)c1ccc(C)cc1CC1Cc2cccc(C)c2C1=O` (stereo unspecified), the GI50 with ACHN was 18.8 µM (inactive); in the experiment on IGROV-1, 7.96 µM (inactive); in the experiment with Malme-3M, 5.97 µM (inactive); with MDA-MB-231 it was 7.1 µM (inactive); in the experiment with HOP-62, 17.9 µM (inactive); in the experiment with HOP-92, 16 µM (inactive). Also, the GI50 with NCI-H522 is 2.37 µM (inactive); in the experiment on OVCAR-3, 4.95 µM (inactive); in the experiment with KM12, 4.08 µM (inactive); with HCT-15, 3.1 µM; with SK-MEL-28, 7.41 µM (inactive); with CAKI-1, 10.6 µM (inactive). For the same compound, the GI50 in the experiment with M14 was 3.93 µM (inactive); with SW-620 it was 3.72 µM (inactive); in the experiment on NCI-H226, 3.83 µM (inactive); in the experiment on SF-539 it was 4.02 µM (inactive); with PC-3, 8.34 µM (inactive); in the experiment on OVCAR-4 it was 19.2 µM (inactive). In addition, the GI50 with MDA-N was 1.87 µM (inactive).

In the case of `O=C(CC(C(=O)c1ccsc1)c1cccs1)c1ccsc1` (stereo unspecified), the GI50 in the experiment on ACHN was 42 µM (inactive); in the experiment with IGROV-1 it was > 100 µM (inactive); in the experiment on Malme-3M, 56.8 µM (inactive); with MDA-MB-231 it was 92 µM (inactive); with HOP-62, > 100 µM (inactive); with KM12, 31.5 µM (inactive). Besides, the GI50 in the experiment with HCT-15 was 45.6 µM; with SK-MEL-28 it was 76.2 µM (inactive); in the experiment on CAKI-1 it was > 100 µM (inactive); with M14, 56 µM (inactive); with SW-620, > 100 µM (inactive); in the experiment on NCI-H226, > 100 µM (inactive). Also, the GI50 in the experiment on SR was 27.4 µM (inactive); in the experiment on PC-3, 28.5 µM (inactive); in the experiment with OVCAR-4, 73.5 µM (inactive); in the experiment on MDA-N, 30.1 µM (inactive).

For the compound `COC(=O)CCC(C)C1CCC2C3C(C[C@H](OC(C)=O)[C@]12C)[C@@]1(C)CCC2(C[C@H]1C[C@H]3OC(C)=O)OOC1(CC[C@]3(C)C4C[C@H](OC(C)=O)[C@]5(C)C(C(C)CCC(=O)OC)CCC5C4[C@H](OC(C)=O)C[C@@H]3C1)OO2` (stereo partly specified), the GI50 in the experiment on ACHN is 33.5 µM (inactive); with IGROV-1 it was > 100 µM (inactive); with Malme-3M, > 100 µM (inactive); with MDA-MB-231, > 100 µM (inactive); in the experiment with HOP-62, > 100 µM (inactive); in the experiment on NCI-H522, > 100 µM (inactive). Further, the GI50 in the experiment with OVCAR-3 is > 100 µM (inactive); with KM12, > 100 µM (inactive); in the experiment on HCT-15 it was greater than 100 µM; with SK-MEL-28 it was > 100 µM (inactive); in the experiment on CAKI-1, 24 µM (inactive); in the experiment on M14 it was > 100 µM (inactive). Further, the GI50 is > 100 µM (inactive) in the experiment on SW-620; 66.8 µM (inactive) with NCI-H226; 44.3 µM (inactive) in the experiment with SR; > 100 µM (inactive) in the experiment with PC-3; > 100 µM (inactive) with OVCAR-4; > 100 µM (inactive) with MDA-N.

Consider `Cc1nc2c(Br)cc(Br)cc2c(=O)n1-c1ccccc1NC1OC(CO)C(O)C(O)C1O` (stereo unspecified), for which the GI50 in the experiment on ACHN, with IGROV-1, in the experiment with Malme-3M, in the experiment on MDA-MB-231, in the experiment on HOP-62 and in the experiment with HOP-92 was > 100 µM (inactive) each time. For the same compound, the GI50 in the experiment with NCI-H522 was > 100 µM (inactive); in the experiment with OVCAR-3, > 100 µM (inactive); in the experiment with KM12 it was > 100 µM (inactive); in the experiment with HCT-15, greater than 100 µM; in the experiment with SK-MEL-28, > 100 µM (inactive); in the experiment on CAKI-1 it was > 100 µM (inactive). Besides, the GI50 in the experiment on M14, in the experiment with SW-620, with NCI-H226, in the experiment on SF-539, with PC-3 and in the experiment with OVCAR-4 was > 100 µM (inactive) each time. For the same compound, the GI50 with MDA-N is > 100 µM (inactive).

With `CCOc1ccc2c(c1)NC(=O)C(C1OC(c3ccccc3)=CC1=O)S2` (stereo unspecified), the GI50 with ACHN was 37.2 µM (inactive); in the experiment with IGROV-1, 17 µM (inactive); in the experiment with Malme-3M it was 21.1 µM (inactive); in the experiment on MDA-MB-231, 25.1 µM (inactive); with HOP-62, 53.2 µM (inactive); in the experiment on NCI-H522, 10.4 µM (inactive). In addition, the GI50 in the experiment with OVCAR-3 was 20.1 µM (inactive); in the experiment on KM12, 23.9 µM (inactive); in the experiment on HCT-15, 21.8 µM; in the experiment on SK-MEL-28, 31 µM (inactive); with CAKI-1, 34.5 µM (inactive); in the experiment with M14 it was 48.2 µM (inactive). Further, the GI50 was 33.4 µM (inactive) with SW-620; 27.7 µM (inactive) with NCI-H226; 15.7 µM (inactive) in the experiment on SR; 25.1 µM (inactive) with SF-539; 13.8 µM (inactive) with PC-3; 25.1 µM (inactive) in the experiment on MDA-N.
